Test [1] has as its system MGC-803. In words: Cell cycle arrest in human MGC803 cells assessed as accumulation at G0/G1 phase at 1.5 ug/ml after 48 hrs by propidium iodide staining-based flow cytometric method (reference value: 52.5 +/- 3.71%). In kind it is functional.
Test [2] has as its system MGC-803. In words: Induction of apoptosis in human MGC803 cells assessed as necrotic cells at 3 ug/ml by annexin V-FITC/propidium iodide staining-based flow cytometric method (reference value: 1%). In kind it is functional. (In flow cytometry, cells or beads pass a laser one at a time.)
Test [3] has as its system GES1. In words: Antiproliferative activity against human GES-1 cells after 48 hrs by MTT assay. Type of test: cell-based. The following applies: GES1, 48 h. Background: Tetrazolium dyes change colour on reduction, which living cells bring about.
Test [4] has as its system MGC-803. In words: Induction of apoptosis in human MGC803 cells assessed as early apoptotic cells at 3 ug/ml by annexin V-FITC/propidium iodide staining-based flow cytometric method (reference value: 1.3%). In kind it is functional.
In test [5] the test system is MGC-803. In words: Induction of apoptosis in human MGC803 cells assessed as viable cells at 3 ug/ml by annexin V-FITC/propidium iodide staining-based flow cytometric method (reference value: 97.6%). In kind it is functional. As to conditions: read-out: Activity.
For test [6], the system named is MGC-803. In words: Induction of apoptosis in human MGC803 cells assessed as necrotic cells at 3 ug/ml in presence of N-acetyl cysteine by annexin V-FITC/propidium iodide staining-based flow cytometric method (reference value: 1%). In kind it is functional.
Test [7] relates to MGC-803. In words: Induction of apoptosis in human MGC803 cells assessed as increase in apoptotic bodies formation at 1.5 to 6 ug/ml after 24 hrs by Hoechst 33258 staining-based fluorescence microscopic method. Type of test: functional, cell-based.
For test [8], the system named is MGC-803. In words: Induction of apoptosis in human MGC803 cells assessed as upregulation of cleaved caspase-9 levels after 48 hrs by Western blot method. Type of test: functional, cell-based. A general note: A western blot detects proteins with antibodies after separation by electrophoresis.
For test [9], the system named is MGC-803. In words: Induction of apoptosis in human MGC803 cells assessed as viable cells at 3 ug/ml in presence of N-acetyl cysteine by annexin V-FITC/propidium iodide staining-based flow cytometric method (reference value: 97.6%). Type of test: functional. The following applies: read-out: Activity.
Test [10] has as its system MGC-803. In words: Cell cycle arrest in human MGC803 cells assessed as accumulation at G2/M phase at 3 ug/ml after 48 hrs in presence of N-acetyl cysteine by propidium iodide staining-based flow cytometric method (reference value: 17.2 +/- 1.35%). Type of test: functional.
Test [11] concerns MGC-803. In words: Induction of apoptosis in human MGC803 cells assessed as decrease in cell number after 24 hrs by inverted microscopic method. In kind it is functional, cell-based.
Test [12] deals with MGC-803. In words: Induction of apoptosis in human MGC803 cells assessed as late apoptotic cells at 1.5 ug/ml by annexin V-FITC/propidium iodide staining-based flow cytometric method (reference value: 0.1%). Type of test: functional.
In test [13] the test system is MGC-803. In words: Induction of apoptosis in human MGC803 cells assessed as viable cells at 1.5 ug/ml by annexin V-FITC/propidium iodide staining-based flow cytometric method (reference value: 97.6%). Type of test: functional. The following applies: read-out: Activity.
The subject of test [14] is MGC-803. In words: Cell cycle arrest in human MGC803 cells assessed as accumulation at G0/G1 phase at 1.5 ug/ml after 48 hrs in presence of N-acetyl cysteine by propidium iodide staining-based flow cytometric method (reference value: 52.5 +/- 3.71%). Type of test: functional.
Test [15] has as its system MGC-803. In words: Induction of apoptosis in human MGC803 cells assessed as downregulation of survivin levels at 1.5 to 6 ug/ml after 48 hrs by Western blot method. In kind it is functional, cell-based.
In test [16] the test system is MGC-803. In words: Induction of apoptosis in human MGC803 cells assessed as viable cells at 1.5 ug/ml in presence of N-acetyl cysteine by annexin V-FITC/propidium iodide staining-based flow cytometric method (reference value: 97.6%). In kind it is functional. As to conditions: read-out: Activity.
Test [17] deals with MGC-803. In words: Cell cycle arrest in human MGC803 cells assessed as accumulation at G2/M phase at 3 ug/ml after 48 hrs by propidium iodide staining-based flow cytometric method (reference value: 17.2 +/- 1.35%). In kind it is functional.

Calls of active or inactive are those of the source. The rule behind the calls is not given here.

On to `C=C1C(=O)[C@]23[C@H](O)[C@H]1C[C@H](O)[C@H]2[C@]12CCCC(C)(C)[C@H]1C[C@H]3O[C@@H]2OCCc1cn(Cc2ccc(Cl)cc2)nn1`, for which the Activity in [1] was 46.3%; in test [2], 1.3%; in test [4] it was 60.3%; in test [6] it was 0.6%; in [8], “Dose-dependent effect”; in [10] it was 14.8%. Moreover, the Activity entry was “Dose-dependent effect” in test [11], 0.3% in test [12], 55.4% in test [14] and 40.3% in [17]. Further, the IC50 (usually the concentration that gives 50% inhibition) in test [3] was determined as 28.7 µM. Besides, the viability at 3 µg/mL in test [5] is 37.4%; in test [9], 94%. Also, the result in test [7] and in [15] was Active. For the same compound, the viability at 1.5 µg/mL stood at 91% in test [13] and 95% in test [16].

These data come from ChEMBL document CHEMBL4229547, “Design, synthesis and biological mechanisms research on 1,2,3-triazole derivatives of Jiyuan Oridonin A” (Bioorg Med Chem, 2018).
